{
  "source": "patent US20180140609A1",
  "about": "“USE OF (4-HYDROXY-2-METHYL-1,1-DIOXIDO-2H-BENZO[E][1,2]THIAZINE-3-YL)(NAPHTHALENE-2-YL) METHANONE IN THE PREVENTION AND/OR TREATMENT OF NON-ALCOHOLIC STEATOHEPATITIS” (PIERRE FABRE MEDICAMENT, priority 2015, published 2018)",
  "key": {"11β-HSD type 1": {"test_system": "11β-HSD type 1", "experiment": "Inhibition of conversion of prednisone to prednisolone after single administration to cynomolgus monkeys", "type": "in vivo", "protocol": "The protocol used is described by Bhat et al. (J. Pharmacol. Exp. Ther. 324, 299-305, 2008).\n(§1) Briefly, the study is carried out in naive adult male cynomolgus monkeys fasted overnight. The 11β-HSD type 1 inhibitor or its vehicle (0.5% methylcellulose in water) is administered via nasogastric intubation. Two hours later, a challenge with orally administered prednisone (10 mg/kg) is performed and blood samples are taken regularly for 24 hours. These samples are centrifuged to obtain plasma and immediately frozen at −70° C. until bioanalysis. Plasma levels of prednisone, prednisolone and 11β-HSD type 1 inhibitors are measured by LC-MS/MS analytical methods.\n(§2) The study is carried out over a period of 10 weeks. Profiles of plasma concentration as a function of time and areas under the curve are calculated using the trapezoidal method for all parameters.\nThe effect of Compound 1 is evaluated at three doses: 1.25, 5 and 20 mg/kg.\nThe effect of Compound 1K is evaluated at three doses: 20, 40 and 80 mg/kg. The protocol is quite similar to the preceding, except that only 5 blood samples were taken per monkey rather than 7. Compound 1K was also evaluated over a period of 10 weeks.\nThe 11β-HSD type 1 activity-dependent conversion of prednisone to prednisolone was evaluated. Compound 2K inhibits roughly 50% this activity at a dose of 20 mg/kg (FIG. 2A). FIG. 2 represents the effects of Compound 2K, at the three doses tested, on plasma prednisolone/prednisone ratio calculated with the area under the curve between 30 minutes and 4 hours (panel A) and on plasma exposure during the 6-hour experimental period (panel B); the results obtained with Compound 1K at a dose of 5 mg/kg are compared in the two panels."}, "[1]": {"experiment": "Plasma exposure in cynomolgus monkeys (prednisone challenge studies, LC-MS/MS)", "type": "in vivo", "conditions": "same dose of 20 mg/kg", "protocol": "as §1, §2"}},
  "data": [
    {"compound": "CN1C(C(=O)c2ccc3ccccc3c2)=C([O-])c2ccccc2S1(=O)=O.[K+]", "note": "[Compound 1K, potassium 3-(2-naphthoyl)-2-methyl-2H-benzo[e][1,2]thiazin-4-olate 1,1-dioxide]", "values": [
      {"measurement": "inhibition of plasma prednisolone/prednisone ratio of AUC (30 minutes to 4 hours)", "setting": "11β-HSD type 1; 20 mg/kg, prednisone 10 mg/kg 2 h later", "result": 81, "unit": "%"},
      {"measurement": "inhibition of conversion of prednisone to prednisolone (prednisolone/prednisone AUC ratio)", "setting": "11β-HSD type 1; 40 mg/kg", "result": 79, "unit": "%"},
      {"measurement": "inhibition of conversion of prednisone to prednisolone (prednisolone/prednisone AUC ratio)", "setting": "11β-HSD type 1; 80 mg/kg", "result": 89, "unit": "%"},
      {"measurement": "\"maximum\" inhibition of plasma prednisolone/prednisone ratio of AUC (30 minutes to 4 hours)", "setting": "11β-HSD type 1; all the doses tested (20, 40 and 80 mg/kg), 5 animals per group", "result": "at least 80%"},
      {"measurement": "increase of plasma exposure versus Compound 1", "setting": "[1]", "result": "~8", "unit": "fold"}
    ]}
  ]
}
